Experimental data as given in patent US5486624A (Pacific Corporation, priority 1994, dated 1996).

Legend:
human skin = test: human body patch test (skin safety); format: in vivo; settings: for number of positive subjects/the number of total subjects: cream with 0.2 wt. % compound, 20 μl plaster, 30 volunteers; for safety to human skin (in words): overall conclusion
Experimental: In order to examine the safety of the compounds of Examples 1 and 2, a human body patch test was carried out as follows:
The brachium of thirty(30) healthy volunteers (15 females and 15 males) was thoroughly washed with 70% ethanol and applied with a plaster containing 20 μl of a conventional creamy preparation incorporating 0.2 wt. % of one of the compounds of Examples 1 and 2. The plaster was thoroughly bonded to the brachium using an adhesive tape. 48 hours later, the tape and chamber were removed, and the adherent site of the arm was wiped with a gauze to remove any remaining preparation. […] 48 hours later, the site was examined again.
The results are shown in terms of the number of positive subjects/the number of total subjects.

Tyrosinase [1] = test: Tyrosinase-inhibiting activity; format: biochemical, mushroom; settings: for IC50: mushroom tyrosinase, tyrosine, pH 6.8, 37° C., 10 minutes, 475 nm, read-out: IC50 (concentration of test compound which inhibits tyrosinase by 50%); for tyrosinase inhibition activity, fold higher than that of kojic acid: relative to kojic acid, in terms of IC50
Experimental: Tyrosinase, which was extracted from mushroom, was purchased from SIGMA. […] Ethanol and water were used to dilute the test compounds. As a control, 0.9 ml of a 1:1 mixture of ethanol and water was used. […] The test tube was quickly cooled in an ice water bath to stop the reaction, and absorbance was measured at 475 nm. […] IC50, i.e., the concentration of test compound which inhibits tyrosinase by 50% was calculated by serial dilution for each test compound.

[2] = DPPH (diphenylpicrylhydrazyl) radical-scavenging test; settings: for IC50: DPPH 100 μM in ethanol, 37° C., 30 minutes, 515 nm, read-out: IC50 (concentration of test compound which scavenges the radical DPPH by 50%)
Experimental: Harmful radical-scavenging activities of the compounds of Examples 1 and 2 were compared with those of conventional anti-oxidants using a DPPH (diphenylpicrylhydrazyl) radical-scavenging test as follows:
DPPH was dissolved into ethanol to a concentration of 100 μM. A series of dilutions of compounds of Examples 1 and 2, vitamin C, vitamin E or hydroquinone were prepared. Ethanol and water were used to dilute the test compounds. As a control, a 1:1 mixture of ethanol and water was used. The series of dilutions of each test compound were mixed with 1,900 μl of DPPH solution and the dilution solvent was added to 2.0 ml. The resulting mixture was reacted in an incubator at 37° C. for 30 minutes. Absorbance was measured at 515 nm. The radical-scavenging activities of the compounds of Examples 1 and 2 and conventional anti-oxidants were calculated by the following equation: [formula]
IC50, i.e., the concentration of test compound which scavenge the radical, DPPH by 50% was calculated by the serial dilution method for each test compound.

tyrosinase [3] = settings: prior art statement; cited from earlier work

Row | Compound | IC50 (Tyrosinase [1]) | tyrosinase inhibition activity, fold higher than that of kojic acid (Tyrosinase [1]) | IC50 [2] | number of positive subjects/the number of total subjects (human skin; 48 hours later) | number of positive subjects/the number of total subjects (human skin; 96 hours later) | skin response in patch test (in words) (human skin; after 48 hours) | skin response in patch test (in words) (human skin; after 96 hours) | safety to human skin (in words) (human skin) | radical-scavenging activity (in words) [2] | inhibition of tyrosinase (in words) (tyrosinase [3])
1 | O=C(C=Cc1ccc(O)c(O)c1)OCc1cc(=O)c(O)co1 [Example 1, 2-(3,4-dihydroxycinnamoyl)oxymethyl-5-hydroxy-4H-pyran-4-one] | 4 µM | 20 fold | 12.3 µM | 1/30 | 0/30 | weak positive response | disappeared | safe to human skin | strong activity as a radical scavenger | –
2 | COc1cc(C=CC(=O)OCc2cc(=O)c(O)co2)ccc1O [Example 2, 2-(4-hydroxy-3-methoxycinnamoyl) oxymethyl-5-hydroxy-4H-pyran-4-one] | 4 µM | 20 fold | 70 µM | 1/30 | 0/30 | weak positive response | disappeared | safe to human skin | – | –
3 | Oc1ccc(O)cc1 [Hydroquinone, hydroquinone, reference compound] | – | – | 25.4 µM | – | – | – | – | – | – | –
4 | O=c1cc(CO)occ1O [Kojic acid] | – | – | – | – | – | – | – | – | – | strongly inhibits the action of tyrosinase

The next lines start with results.

Row | IC50 (Tyrosinase [1]) | tyrosinase inhibition activity, fold higher than that of kojic acid (Tyrosinase [1]) | IC50 [2] | Compound | number of positive subjects/the number of total subjects (human skin; 48 hours later) | number of positive subjects/the number of total subjects (human skin; 96 hours later) | skin response in patch test (in words) (human skin; after 48 hours) | skin response in patch test (in words) (human skin; after 96 hours) | safety to human skin (in words) (human skin) | radical-scavenging activity (in words) [2] | inhibition of tyrosinase (in words) (tyrosinase [3])
5 | – | – | 29.2 µM | O=C1O[C@H]([C@@H](O)CO)C(O)=C1O [Vitamin C, reference compound] | – | – | – | – | – | – | –
6 | – | – | 34.8 µM | tocopherol [Vitamin E, reference compound] | – | – | – | – | – | – | –
